# Molecular target: T1, KMO mouse enzyme (Mus musculus, UniProt Q91WN4)
# T1 construct: KMO enzyme prepared at Evotec from mouse liver (4-6 weeks old) via mitochondria isolation; from tissue; host or cells: mouse liver (4-6 weeks old), mitochondria isolation at Evotec
# Assay: Mouse KMO enzyme assay: L-kynurenine hydroxylation to 3OH-KYN by LC/MS
# Type: biochemical
# Details: compound at 10 μM; KMO from mouse liver mitochondria; read-out: INH.Mouse @ 10 μM
# Method: Product is quantified by multiple reaction monitoring (MRM method).
# • Compound: Stock concentrations: 10 mM in 100% DMSO • Enzyme: KMO enzyme prepared at Evotec from mouse liver (4-6 weeks old) via mitochondria isolation as described in the literature • Substrate: L-Kynurenine (Sigma: Cat #K3750, stock concentration:
# 10 mM in 100 mM potassium phosphate buffer, pH 7.4)
# T1 sequence (Q91WN4 whole entry): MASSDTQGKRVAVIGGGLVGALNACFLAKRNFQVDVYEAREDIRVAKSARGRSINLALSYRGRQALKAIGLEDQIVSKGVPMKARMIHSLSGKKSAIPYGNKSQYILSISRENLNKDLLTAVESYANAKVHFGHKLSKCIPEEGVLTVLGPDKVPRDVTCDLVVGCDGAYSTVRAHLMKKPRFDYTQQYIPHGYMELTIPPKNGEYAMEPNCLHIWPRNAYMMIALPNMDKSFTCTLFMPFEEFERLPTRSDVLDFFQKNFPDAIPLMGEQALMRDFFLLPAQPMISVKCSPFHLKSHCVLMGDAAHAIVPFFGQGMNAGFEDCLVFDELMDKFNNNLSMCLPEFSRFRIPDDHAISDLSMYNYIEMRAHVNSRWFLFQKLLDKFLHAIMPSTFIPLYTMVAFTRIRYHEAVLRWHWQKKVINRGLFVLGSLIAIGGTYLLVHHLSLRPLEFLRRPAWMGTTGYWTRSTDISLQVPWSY
row,inhibition at 10 µM,SMILES
1,0%,"FC(F)(F)c1c[nH]c(-c2cc(-c3ccc(Cl)c(Cl)c3)ncn2)n1 [4-(3,4-dichlorophenyl)-6-(4-(trifluoromethyl)-1H-imidazol-2-yl)pyrimidine]"
2,11%,"O=C(O)[C@@H]1CCCN1c1cc(-c2ccc(Cl)c(Cl)c2)ncn1 [(S)-1-(6-(3,4-dichlorophenyl)pyrimidin-4-yl)pyrrolidine-2-carboxylic acid]"
3,84%,O=C(O)C1CCC(c2cc(-c3ccc(OC4CC4)c(Cl)c3)ncn2)N1 (stereo not shown) [5-(6-(3-chloro-4-cyclopropoxyphenyl)pyrimidin-4-yl)pyrrolidine-2-carboxylic acid]
4,100%,"Clc1cc(-c2cc(-c3nn[nH]n3)ncn2)ccc1OC1CC1 [4-(3-chloro-4-cyclopropoxyphenyl)-6-(1H-1,2,3,4-tetrazol-5-yl)pyrimidine]"
5,0%,"O=C(O)C1CN(c2cc(-c3ccc(Cl)c(Cl)c3)ncn2)CCN1 (stereo not shown) [4-(6-(3,4-dichlorophenyl)pyrimidin-4-yl)piperazine-2-carboxylic acid]"
6,93%,"O=c1[nH]c(-c2cc(-c3ccc(OC4CC4)c(Cl)c3)ncn2)no1 [3-[6-(3-chloro-4-cyclopropoxyphenyl)pyrimidin-4-yl]-4,5-dihydro-1,2,4-oxadiazol-5-one]"
7,30%,"O=C(O)C1CNCCN1c1cc(-c2ccc(Cl)c(Cl)c2)ncn1 (stereo not shown) [1-(6-(3,4-dichlorophenyl)pyrimidin-4-yl)piperazine-2-carboxylic acid]"
8,71%,Clc1cc(-c2cc(-c3ncco3)ncn2)ccc1OC1CC1 [2-(6-(3-chloro-4-cyclopropoxyphenyl)pyrimidin-4-yl)oxazole]
9,7%,"O=C(O)[C@H]1CCCN1c1cc(-c2ccc(Cl)c(Cl)c2)ncn1 [(R)-1-(6-(3,4-dichlorophenyl)pyrimidin-4-yl)pyrrolidine-2-carboxylic acid]"
10,71%,CC(C)Oc1ccc(-c2cc(C3CNC(C(=O)O)C3)ncn2)cc1Cl (stereo not shown) [4-(6-(3-chloro-4-isopropoxyphenyl)pyrimidin-4-yl)pyrrolidine-2-carboxylic acid]
11,14%,"O=C(O)C1CCN(c2cc(-c3ccc(Cl)c(Cl)c3)ncn2)C1 (stereo not shown) [1-(6-(3,4-dichlorophenyl)pyrimidin-4-yl)pyrrolidine-3-carboxylic acid]"

# System: not listed separately
# Assay: Solubility remark made during LCMS characterisation
# Type: physicochemical
# Details: solvent for LCMS analysis
row,SMILES,solubility (remark in words)
1,O=c1[nH]nc(-c2cc(-c3ccc(Cl)c(Cl)c3)ncn2)[nH]1,"very unsoluble compound- LCMS unobtainable ^1H NMR (250 MHz, DMSO- d6) ppm 9.27-9.32 (1 H, m), 8.39-8.47 (2 H, m), 8.17- 8.25 (1 H, m), 7.76-7.85 (1 H, m)"
2,Cn1[nH]cc(-c2cc(-c3ccc(Cl)c(Cl)c3)ncn2)c1=O,"Compound is insufficiently soluble in any acceptable solvent in order to obtain a meaningful LCMS 1H NMR (500 MHz, DMSO-d6) d ppm 8.88 (1 H, s), 8.44 (1 H, br. s.), 8.26 (1 H, br. s.), 8.19 (1 H, d), 8.06 (1 H, br. s.), 7.85 (1 H, d), 3.45 (3 H, s)"

# — US9649310B2, “Certain kynurenine-3-monooxygenase inhibitors, pharmaceutical compositions, and methods of use thereof” (CHDI Foundation, Inc., priority 2011, dated 2017)
